Assay results: patent US6245758A, “Methods of use for peroxynitrite decomposition catalysts, pharmaceutical compositions therefor” (priority 1996, dated 2001)

Legend:
RAW 264.7 cells = test: Cell protection assay, Alamar Blue viability after peroxynitrite challenge; assay type: cell-based, murine; details: for protection of cells from PN-mediated injury: PN 500 micromolar, RAW cells, FIG. 9 (H2 TMPyP and ZnTMPyP: data not shown)
Experimental: FIG. 8: Comparison of Ni and Fe Catalyst Protection of RAW Cells from PN(peroxynitrite)-mediated Injury. RAW 264.7 cells were plated at approximately 2×10^5 per well of a 96-well plate. […] Each condition represents the mean of 4 wells ±sem.
FIG. 9: Protection from PN-mediated RAW Cell Injury by Fe Catalysts. Cells were treated with 500 micromolar PN in the presence or the absence of the following catalysts: FeTMPyP, FeTMPS, FeTPPS. Cell viability was monitored as described in the text and figure legends 1, 2 and 3. Values represent the mean of 4 determinations ±sem.
Protocol for Cell Protection Assays using Peroxynitrite Decomposition Catalysts: A cell viability assay was established to rapidly assess the efficacy of peroxynitrite(PN) catalysts in protecting cells from PN25 mediated injury and death. The peroxynitrite challenge consisted of a pulse of synthetic PN added exogenously to cells. In order to better assess the efficacy of PN catalysts in protecting cells from PN-mediated damage, a quantity of peroxynitrite(in 50 mM NaOH) determined to cause maximal injury(100%) was added as an exogenous pulse to each well of cells in the presence or absence of catalyst. The NaOH vehicle was not toxic by itself.
Cells(RAW 264.7 cells or P815 mastocytoma cells; American Type Culture Collection, Rockville, Md.) were plated to confluence on 96-well tissue culture plates. Each well is washed twice with Dulbecco's phosphate buffered saline(DPBS; GIBCO BRL, Grand Island, N.Y.) to remove protein and other serum components which might react with the exogenous peroxynitrite. To each well is then added 200 μl of DPBS. PN is next placed into separate wells at increasing concentrations and cell viability monitored. The dose at which maximal cell death is attained is then utilized for the catalyst protection assessment.
Phosphate-buffered saline (200 uL) containing increasing concentrations of catalyst is next placed into individual wells of cells. The maximal dose of PN is subsequently administered to all wells of cells. After 15 minutes, the medium is removed from each well and the cells are either allowed to recover overnight in Earles minimum essential medium without phenol red and supplemented with 10% fetal bovine serum or alternatively the plate of cells is assayed that day for mitochondrial integrity using the Alamar Blue viability assay(Alamar Biosciences, Inc.; Sacramento, Calif.). In either case, cells are incubated at 37° C. in 5% CO2.
Cell injury is measured as follows. Briefly, 10% Alamar Blue(v/v) in Earles MEM with 10% FBS is added to each well of cells for 1-2h. Cell metabolism of the dye generates a fluorescent product which is directly related to the number of viable cells. Moreover, the production of the fluorescent metabolite is linear for over 2 h. The amount of fluorescent product in 100 μl of conditioned medium from each well of cells is then measured with an IDEXX fluorescent plate reader (gain setting of 1%) at an emission wavelength of 575 nm after exciting at 545 nm. Viability is either given as absolute fluorescent units or as a percent of the value obtained for untreated cells(100%).

[1] = test system: human aortic endothelial cells; test: Endothelial cell injury assay (51Cr release), neutrophil-mediated; assay type: cell-based; details: 2 h; TNF/C5a-activated neutrophils; FIG. 7
Experimental: Peroxynitrite catalyst, Fe(TMPyP), was added to neutrophils in the cell injury assay immediately before activation by TNF/C5a. After 2 h, the amount of specific cell injury was assessed by the amount of radiolabel released into the medium. Values represent the average of three replicas +/-SEM. *p<0.01 vs. 0 uM control by Dunnett's t Test.
[…]: Human recombinant tumor necrosis factor-alpha (TNF-a) was obtained from Genzyme Corporation, Cambridge, MA. Human recombinant complement C5a and L-arginine (L-arg) was purchased from Sigma Chemical Company, St. Louis, Mo. Authentic peroxynitrite in 50 mM NaOH was prepared as described above.
Preparation of Neutrophils: Human neutrophils were isolated from peripheral blood of healthy donors (Look, D. C., Rapp, S. R., Keller, B. T., and Holtzman, M. J. Am. J. Physiol., 263, L79-L87 [1992]). […]
Endothelial Cell Injury Assays: The cytotoxic effects of stimulated neutrophils or peroxynitrite on endothelial cells was determined using a ^51 Cr-release assay as described by Moldow (Moldow et. al. Methods Enzymol., 105, 378-385, [1984]). […]
^51 Cr release was determined by aspiration of the supernatant from each well (soluble fraction). […] Both fractions were analyzed by gamma scintillation spectrometry. Results were expressed as percent ^51 Cr release as follows: % release=cpm (soluble+nonadherent/total cpm per well)×100. […]

Row | SMILES | protection of cells from PN-mediated injury (RAW 264.7 cells) | inhibition of neutrophil-mediated injury to endothelial cells [1] | protection of RAW 264.7 cells from PN-mediated injury (RAW 264.7 cells; PN 360 micromolar, Alamar Blue, FIG. 8)
1 | CC(=O)[O-].Cc1c(-c2c3nc(c(-c4c(C)c(S(=O)(=O)[O-])c(C)c(S(=O)(=O)[O-])c4C)c4ccc([n-]4)c(-c4c(C)c(S(=O)(=O)[O-])c(C)c(S(=O)(=O)[O-])c4C)c4nc(c(-c5c(C)c(S(=O)(=O)[O-])c(C)c(S(=O)(=O)[O-])c5C)c5ccc2[n-]5)C=C4)C=C3)c(C)c(S(=O)(=O)[O-])c(C)c1S(=O)(=O)[O-].[Fe+3].[Na+].[Na+].[Na+].[Na+].[Na+].[Na+].[Na+].[Na+] [Fe(III)TMPS, Acetato-5,10,15,20-tetrakis(3,5-disulfonatomesityl)porphyrin Iron (III) octasodium salt] | significant protection of cells |  | 
2 | CC(=O)[O-].C[n+]1ccc(-c2c3nc(c(-c4cc[n+](C)cc4)c4ccc([n-]4)c(-c4cc[n+](C)cc4)c4nc(c(-c5cc[n+](C)cc5)c5ccc2[n-]5)C=C4)C=C3)cc1.Cc1ccc(S(=O)(=O)[O-])cc1.Cc1ccc(S(=O)(=O)[O-])cc1.Cc1ccc(S(=O)(=O)[O-])cc1.Cc1ccc(S(=O)(=O)[O-])cc1.[Fe+3] [Fe(III)TMPyP, Acetato (5,10,15,20-tetrakis(N-methyl-4-pyridyl)porphinato) iron (III) tetra-tosylate] | significant protection of cells | Inhibition of neutrophil-mediated injury to human aortic endothelial cells | total protection from PN-mediated injury
